Data reported in patent US7897626B2, “2-substituted thiazole-4-carboxamide derivatives, their preparation and use as pharmaceuticals” (Bayer Schering Pharma AG, priority 2007, dated 2011).

Test system: TLR7
Test: TLR-induced cytokine release (TNF-alpha) in human PBMC, TLR7 ligand stimulation
Assay type: cell-based
Conditions: human PBMC incubated 18 hours with test substance and TLR7 ligand; TNF-alpha in supernatant by ELISA; read-out: EC50 (TNF-α TLR7)
Protocol: TLR-Induced Cytokine Release in Human “Peripheral Blood Mononuclear Cells” (PBMC)
PBMCs isolated from human whole blood are stimulated using a TLR ligand.
The cytokine determination is carried out by means of ELISA kits; a proliferation/cell metabolism determination is carried out using Alamar Blue.
For the cell preparation, about 200 ml of blood are treated with an anticoagulant (e.g. citrate Monovettes). Per Leucosep tube, 15 ml of Histopaque (room temperature, RT) are poured in and forced downwards through the inserted frit by brief initial centrifugation (one minute at 1000×g, RT). 20 ml of blood are added to the tubes prepared in this way and centrifuged at 800×g for 15 minutes (RT). After centrifugation, the following layered arrangement results from the top to the bottom:
plasma-PBMC-Histopaque-filter disc-Histopaque-erythrocytes and granulocytes. The supernatant plasma is aspirated. The PBMC are transferred together with the underlying Histopaque to a new 50 ml tube, the contents of two Leucosep tubes always being added to one 50 ml tube. The 50 ml tubes are then filled to 50 ml with PBS. This cell suspension is centrifuged at 300×g (RT) for 10 minutes.
The liquid supernatant is tipped off and the cell pellet is resuspended with a little PBS and subsequently filled to 50 ml with PBS. This washing step is repeated twice. The resulting pellet is taken up in a defined volume of medium (with additives). For the testing of the substances, PBMC are incubated for 18 hours with titrated concentrations of the test substances, e.g. in the presence or absence of TLR7 or TLR9 ligands. On the next day, the supernatants are investigated for the content of TNF-alpha or other cytokines or chemokines by means of specific ELISA. The metabolic activity of the treated cells is determined with the aid of Alamar Blue.

Structure (SMILES): Cn1cc(NC(=O)c2csc(-c3cn[nH]c3)n2)c(C(N)=O)n1 [Example 1, 2-(1H-Pyrazol-4-yl)thiazole-4-(3-carbamoyl-1-methyl-1H-pyrazol-4-yl)-carboxamide]
- EC50: 50 nM

Structure (SMILES): Cc1cc(-c2nc(C(=O)Nc3ccccc3C(N)=O)cs2)cs1 [Example 2, N-[2-(Aminocarbonyl)phenyl]-2-(5-methyl-3-thienyl)-4-thiazole-carboxamide]
- EC50: 3800 nM

Structure (SMILES): Cc1ccc(C(N)=O)c(NC(=O)c2csc(-c3cn[nH]c3)n2)c1 [Example 3, N-[2-(Aminocarbonyl)-5-methylphenyl]-2-(1H-pyrazol-4-yl)thiazole-4-carboxamide]
- EC50: 120 nM
